Here are results for 1 compound from US20210379085A1, “HALOGENATED SALICYLANILIDES FOR TREATING THE SYMPTOMS OF DERMATITIS” (Union Therapeutics A/S, priority 2018, published 2021).

The Vd is the apparent volume that relates the amount in the body to the concentration in plasma or blood. The low end stands for confinement near the circulation, the high end for extensive tissue distribution. In general, half-life refers to the time needed for the level to fall by half in the phase considered. Read a low half-life as rapid decline. Broadly, the bioavailability is the share of a dose that reaches the circulation, judged against a reference dose that is usually intravenous. A low value points to poor availability.

Each structure is given as a SMILES string.

The nature of data set [1]: Plasma pharmacokinetics of oxyclozanide after topical Composition K in dogs (Example 5). The format is in vivo, dog. The protocol:
The cutaneous route (topical administration) was the route of administration for composition K on dogs. Composition K was applied evenly along the backbone starting from the base of the tail to the back of the neck.
For all animals of group A, a blood sample of around 4 ml was collected from the jugular vein using tubes containing lithium heparin at the following times (with tolerance of 10%): D-3a, D0a+1h, D0a+6h, D0a+12h, D0a+16h, D0a+24h, D0a+32h, D0a+48h, D3a, D5a et D7a.
Centrifugation (around 3500 revolutions/min, for 15 minutes at +4° C.) was performed a maximum of 30 minutes after sampling. The plasma was collected and then divided into two aliquots in tubes (Nunc 1.8 ml type) as follows: • S1 aliquot: around 0.5 ml • S2 aliquot: the remainder of the plasma (more than 0.5 ml)
The pharmacokinetic analysis was performed using Phoenix software (version 6.3, Pharsight, USA). Data points indicated as “missing” were systematically ignored during the calculation and therefore have no effect on the results. A missing status is assigned and no flag symbol is used. Values were excluded if, in the judgement of the pharmacokineticist, they were deemed not to be “[…].” If outliers were suspected, they were identified using the Outlier identification procedure of STATGRAPHICS.

The nature of data set [2]: in vivo. Conditions: dog.

Regarding `O=C(Nc1cc(Cl)cc(Cl)c1O)c1c(O)c(Cl)cc(Cl)c1Cl` [Oxyclozanide], the AUC(0-inf) in data set [1] (dog, plasma, topical or ocular, topical single 20 mg/kg Composition K, read-out: AUCinf in plasma (first value of the comparison, presumably Example 5)) was determined as 60600 ng·h/mL. Further, the “concentrations of oxyclozanide in plasma after topical administration” value in data set [1] (topical 20 mg/kg Composition K) is given as “Low concentrations”. In addition, the “bioavailability after topical administration (Example 5, by comparison of AUCinf with Example 4)” value in data set [1] (topical 20 mg/kg Composition K, not calculated, no intravenous route in this study) was “about 12%”. Moreover, in data set [2] (iv, 2.5 mg/kg), the Vd is ~0.6 L/kg and the half-life was 38 h. Moreover, the bioavailability in data set [2] (po, 5 mg/kg) was 48%. Moreover, in data set [2] (topical or ocular, 20 mg/kg), the AUC(0-inf) turned out to be 55700 ng·h/mL and the bioavailability came out at 12%.
